Some test systems named below: CAKI-1; DU-145; HCC 2998; HCT-15; HL-60; IGROV-1; LOX IMVI; M14; MDA-MB-231; Malme-3M; NCI-H23; PC-3; SF-295; SF-539; SK-OV-3; SNB-19; T47D; Hs-578T.
What all share (experiment): inhibition of tumour cell growth, NCI panel, 48 h

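Cultured in 96-well plates, cells were exposed to test compound for 48 hours across five concentrations. GI50 = concentration required for 50% inhibition of growth.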 Calls of active or inactive are those of the source. Cut-off read from the data, not from the text of the source: active = GI50 up to about 1.1 µM and inactive = higher. A value given as a limit tells only on which side of the number the result lay.

As for `O=c1[nH]c(=O)n(COCCOCc2ccccc2)cc1Nc1ccccc1`, the GI50 in the test with CAKI-1 was > 100 µM (inactive); in the test with DU-145, > 100 µM (inactive); with HCC 2998, > 100 µM (inactive); in the test on HCT-15 it was over 100 µM; in the test with HL-60 it was 41.9 µM (inactive); with IGROV-1 it was > 100 µM (inactive). The GI50 in the test with LOX IMVI, in the test on M14, with MDA-MB-231, in the test on Malme-3M, with NCI-H23 and in the test with PC-3 was > 100 µM (inactive) throughout. The GI50 with SF-295 was > 100 µM (inactive); in the test with SF-539, > 100 µM (inactive); with SK-OV-3 it was > 100 µM (inactive); in the test on SNB-19 it was > 100 µM (inactive); with T47D, 24.2 µM (inactive).

Regarding `CC(CO)CCNc1ncnc2c1ncn2CCC(=O)OC(C)(C)C` (stereo not drawn), the GI50 with CAKI-1, in the test with DU-145, in the test with HCC 2998, with HL-60, in the test with Hs-578T and in the test with IGROV-1 was > 100 µM (inactive) each time. In addition, the GI50 in the test on LOX IMVI, in the test on M14, in the test with MDA-MB-231, in the test with Malme-3M, in the test on NCI-H23 and in the test on PC-3 was > 100 µM (inactive) each time. Moreover, the GI50 with SF-295, with SF-539, with SK-OV-3, in the test with SNB-19 and with T47D was > 100 µM (inactive) in each case.

On to `CNC(=S)N/N=C1\CC(c2ccccc2)Oc2ccccc21` (stereo not drawn), for which the GI50 in the test with CAKI-1, with HCC 2998, with IGROV-1, in the test with LOX IMVI, in the test on M14 and in the test on Malme-3M was > 100 µM (inactive) throughout. Besides, the GI50 in the test on NCI-H23, in the test on SF-295, with SF-539, in the test with SK-OV-3 and in the test with SNB-19 was > 100 µM (inactive) in each case.

For `O=C1[C@H]2C(c3ccccc3)=NN(C(=O)c3ccccc3)[C@H]2C(=O)N1c1ccccc1`, the GI50 is over 100 µM in the test with HCT-15; > 100 µM (inactive) with IGROV-1; > 100 µM (inactive) in the test on LOX IMVI; > 100 µM (inactive) with M14; > 100 µM (inactive) in the test on Malme-3M; > 100 µM (inactive) in the test with NCI-H23. Moreover, the GI50 with SF-295, in the test on SF-539, in the test on SK-OV-3 and in the test on SNB-19 was > 100 µM (inactive) each time.

For the molecule `CC(C)=CCC12Cc3ccc(O)cc3C(C(C)CN1)C2C` (stereo not drawn), the GI50 in the test on DU-145 is > 100 µM (inactive); in the test with HCC 2998, 20.8 µM (inactive); with HCT-15, 72.1 µM; with HL-60 it was 28.1 µM (inactive); in the test on Hs-578T it was 67.6 µM (inactive); with IGROV-1 it was > 100 µM (inactive). For the same molecule, the GI50 was 42.9 µM (inactive) in the test with LOX IMVI; 21 µM (inactive) in the test with M14; > 100 µM (inactive) in the test on MDA-MB-231; > 100 µM (inactive) in the test with Malme-3M; > 100 µM (inactive) in the test with NCI-H23; 65.2 µM (inactive) in the test with SF-295. Besides, the GI50 with SF-539 is 72.1 µM (inactive); in the test with SK-OV-3, > 100 µM (inactive); in the test on SNB-19 it was > 100 µM (inactive); in the test on T47D, > 100 µM (inactive).

In the case of `N=C1N(/N=C/c2ccccn2)/C(=N\c2ccccc2)C(=S)N1c1ccccc1`, the GI50 with CAKI-1 is 6.44 µM (inactive); in the test on DU-145, 3.31 µM (inactive); in the test with HCC 2998, 10.2 µM (inactive); with HCT-15 it was 2.54 µM; in the test on HL-60 it was 1.85 µM (inactive); in the test on Hs-578T it was 11.5 µM (inactive). For the same molecule, the GI50 in the test on IGROV-1 was 5.05 µM (inactive); with LOX IMVI, 2.22 µM (inactive); in the test on MDA-MB-231, 6.7 µM (inactive); in the test with Malme-3M, 10.9 µM (inactive); in the test with NCI-H23 it was 6.07 µM (inactive); with PC-3, 3.57 µM (inactive). Moreover, the GI50 with SF-295 is 5.81 µM (inactive); with SF-539, 3.77 µM (inactive); in the test on SK-OV-3, 16.6 µM (inactive); with SNB-19, 15.4 µM (inactive); in the test on T47D, 5.5 µM (inactive).

Take `Cn1cnc([N+](=O)[O-])c1Sc1ccccn1`: the GI50 with CAKI-1 is > 100 µM (inactive); with HCC 2998, > 100 µM (inactive); in the test with IGROV-1, > 100 µM (inactive); in the test with LOX IMVI it was > 100 µM (inactive); with M14, > 100 µM (inactive); in the test on Malme-3M, 68.4 µM (inactive). The GI50 in the test with NCI-H23, with SF-295, with SF-539, in the test with SK-OV-3 and in the test on SNB-19 was > 100 µM (inactive) throughout.

For the molecule `O=C(CC(C(=O)c1ccco1)c1ccsc1)c1ccco1` (stereo not drawn), the GI50 is > 100 µM (inactive) with CAKI-1; > 100 µM (inactive) in the test with DU-145; > 100 µM (inactive) in the test on HCC 2998; over 100 µM in the test on HCT-15; 89.7 µM (inactive) in the test on HL-60; > 100 µM (inactive) with Hs-578T. Besides, the GI50 with IGROV-1 is > 100 µM (inactive); with LOX IMVI, > 100 µM (inactive); in the test with M14, > 100 µM (inactive); in the test with MDA-MB-231, 56.8 µM (inactive); in the test with NCI-H23, > 100 µM (inactive); with SF-295, > 100 µM (inactive). Moreover, the values for the GI50 in the test with SF-539, in the test with SK-OV-3 and with T47D were > 100 µM (inactive), > 100 µM (inactive) and 17.3 µM (inactive), respectively.

In the case of `CC(=O)OCC1OC(OC(C)=O)C(NC#N)C(OC(C)=O)C1OC(C)=O` (stereo not drawn), the GI50 in the test with CAKI-1 is > 100 µM (inactive); in the test with HCC 2998 it was > 100 µM (inactive); with HCT-15 it was over 100 µM; in the test with HL-60, > 100 µM (inactive); in the test on IGROV-1 it was > 100 µM (inactive); in the test on LOX IMVI, 39.2 µM (inactive). Moreover, the GI50 is 97.7 µM (inactive) in the test with M14; > 100 µM (inactive) in the test on Malme-3M; > 100 µM (inactive) with NCI-H23; 80.4 µM (inactive) with SF-295; > 100 µM (inactive) with SF-539; > 100 µM (inactive) with SK-OV-3. For the same molecule, the GI50 in the test on SNB-19 is > 100 µM (inactive).

For `C[N+]1(C)CCCC(C#N)(c2ccccc2)CC1` (stereo not drawn), the GI50 in the test with CAKI-1 was > 100 µM (inactive); in the test on DU-145, > 100 µM (inactive); in the test with HCC 2998, > 100 µM (inactive); in the test with HCT-15, over 100 µM; with HL-60, > 100 µM (inactive); in the test with Hs-578T, > 100 µM (inactive). Besides, the GI50 in the test on IGROV-1, in the test on M14, with Malme-3M, in the test on NCI-H23, in the test on PC-3 and in the test with SF-295 was > 100 µM (inactive) each time. Moreover, the GI50 in the test with SK-OV-3, in the test with SNB-19 and with T47D was > 100 µM (inactive) each time.

Consider `COC(=O)/C(=C\Nc1cccc(C)n1)S(=O)(=O)c1ccc(C)cc1`, for which the GI50 is > 100 µM (inactive) with DU-145; > 100 µM (inactive) in the test on HCC 2998; 45.3 µM in the test with HCT-15; 20.7 µM (inactive) in the test with HL-60; 38.9 µM (inactive) with Hs-578T; > 100 µM (inactive) with IGROV-1. Also, the GI50 was 79.4 µM (inactive) in the test on LOX IMVI; 45.7 µM (inactive) with M14; 64.3 µM (inactive) in the test with MDA-MB-231; > 100 µM (inactive) in the test on Malme-3M; 40.6 µM (inactive) in the test on NCI-H23; 38.8 µM (inactive) in the test on PC-3. In addition, the GI50 in the test with SF-295 is > 100 µM (inactive); in the test with SF-539, 52.4 µM (inactive); in the test on SK-OV-3, > 100 µM (inactive); in the test with SNB-19, 39.2 µM (inactive); with T47D, 48 µM (inactive).

Consider `CSc1nc(Cl)c(Br)c(Nc2cnc(O)nc2O)n1`, for which the GI50 with CAKI-1 was 1.79 µM (inactive); with DU-145, 15.6 µM (inactive); in the test on HCC 2998, 17.8 µM (inactive); in the test with HCT-15 it was 7.41 µM; with HL-60, 2.06 µM (inactive); in the test on IGROV-1 it was 6.34 µM (inactive). Moreover, the GI50 with LOX IMVI is 19.4 µM (inactive); in the test on M14, 27.9 µM (inactive); in the test with MDA-MB-231 it was 13.6 µM (inactive); in the test with Malme-3M, 20.7 µM (inactive); with NCI-H23, 17.3 µM (inactive); in the test on PC-3, 18.8 µM (inactive). The GI50 in the test with SF-295 was 18.9 µM (inactive); with SF-539 it was 20.1 µM (inactive); with SK-OV-3, 19.4 µM (inactive); with SNB-19, 20.2 µM (inactive); in the test with T47D it was 13.8 µM (inactive).

In the case of `CC(C)=Cc1cc2c(cc1O)CCC1C2CC[C@@]2(C)C1CC[C@@H]2O` (stereo partly drawn), the GI50 with CAKI-1 is 13.5 µM (inactive); in the test on DU-145 it was 14.3 µM (inactive); with HCC 2998 it was 14.1 µM (inactive); with HCT-15, 8.89 µM; in the test with HL-60, 15.2 µM (inactive); in the test on Hs-578T it was 18.5 µM (inactive). The GI50 in the test with IGROV-1 was 12.8 µM (inactive); in the test with LOX IMVI, 3.97 µM (inactive); with M14, 10.4 µM (inactive); with MDA-MB-231 it was 16.3 µM (inactive); in the test with Malme-3M, 10.4 µM (inactive); in the test on NCI-H23 it was 15.8 µM (inactive). The GI50 in the test on PC-3 is 11.7 µM (inactive); with SF-295 it was 2.26 µM (inactive); in the test on SK-OV-3, 14.9 µM (inactive); in the test with SNB-19, 11.6 µM (inactive); in the test with T47D, 12.6 µM (inactive).

The values are drawn from ChEMBL document CHEMBL1201862, “PubChem BioAssay data set” (2004).
